Source: ChEMBL document CHEMBL4270563, “Neurogenic and neuroprotective donepezil-flavonoid hybrids with sigma-1 affinity and inhibition of key enzymes in Alzheimer's disease” (Eur J Med Chem, 2018)
Active and inactive are the calls of the source. No cut-off for these calls is given here.

Key:
Acetylcholinesterase [1] = target: T1, Acetylcholinesterase (Homo sapiens, UniProt P22303); experiment: Inhibition of recombinant human AChE expressed in HEK293 cells using acetylthiocholine iodide as substrate pretreated for 5 mins followed by substrate addition and measured for 5 mins by Ellman's method
T1 sequence (P22303 whole entry): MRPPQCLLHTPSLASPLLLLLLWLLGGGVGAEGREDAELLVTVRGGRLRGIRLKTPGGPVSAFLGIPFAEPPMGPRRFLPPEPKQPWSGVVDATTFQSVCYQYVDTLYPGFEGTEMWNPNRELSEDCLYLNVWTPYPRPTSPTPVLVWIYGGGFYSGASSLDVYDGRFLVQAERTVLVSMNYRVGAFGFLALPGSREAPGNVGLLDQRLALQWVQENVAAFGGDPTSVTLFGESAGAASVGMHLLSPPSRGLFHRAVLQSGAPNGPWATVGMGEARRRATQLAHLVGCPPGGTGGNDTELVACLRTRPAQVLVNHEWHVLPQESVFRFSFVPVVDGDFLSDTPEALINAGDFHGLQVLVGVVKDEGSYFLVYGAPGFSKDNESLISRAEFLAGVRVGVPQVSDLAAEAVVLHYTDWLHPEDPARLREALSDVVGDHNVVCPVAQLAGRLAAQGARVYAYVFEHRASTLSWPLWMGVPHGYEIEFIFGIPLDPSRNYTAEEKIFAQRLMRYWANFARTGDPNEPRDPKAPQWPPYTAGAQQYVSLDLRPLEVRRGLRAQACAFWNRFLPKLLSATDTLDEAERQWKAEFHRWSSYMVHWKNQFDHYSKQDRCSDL

Cholinesterase = Cholinesterase (Homo sapiens, UniProt P06276); experiment: Inhibition of human serum BuChE using butyrylthiocholine as substrate pretreated for 5 mins followed by substrate addition and measured for 5 mins by Ellman's method
Sequence of Cholinesterase (P06276 whole entry): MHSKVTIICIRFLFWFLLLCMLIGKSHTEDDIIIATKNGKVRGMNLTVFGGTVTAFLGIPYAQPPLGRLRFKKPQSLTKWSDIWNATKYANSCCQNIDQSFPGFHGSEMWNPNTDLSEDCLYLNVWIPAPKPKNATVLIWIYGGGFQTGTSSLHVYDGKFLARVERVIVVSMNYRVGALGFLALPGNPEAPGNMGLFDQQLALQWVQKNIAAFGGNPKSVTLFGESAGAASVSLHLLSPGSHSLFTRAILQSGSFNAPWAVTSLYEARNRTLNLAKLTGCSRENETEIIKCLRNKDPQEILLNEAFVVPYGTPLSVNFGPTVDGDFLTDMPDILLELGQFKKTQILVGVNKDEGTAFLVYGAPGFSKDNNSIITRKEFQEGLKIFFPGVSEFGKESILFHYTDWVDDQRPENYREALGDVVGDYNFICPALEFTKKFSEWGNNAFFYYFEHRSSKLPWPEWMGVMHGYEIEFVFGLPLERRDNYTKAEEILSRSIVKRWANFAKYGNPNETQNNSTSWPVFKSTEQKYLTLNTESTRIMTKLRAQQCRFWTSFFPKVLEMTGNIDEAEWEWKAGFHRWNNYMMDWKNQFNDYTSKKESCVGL

Homo sapiens [2] = organism: Homo sapiens; experiment: Selectivity index, ratio of IC50 for human serum BuChE to IC50 for recombinant human AChE expressed in HEK293 cells; assay type: cell-based
SH-SY5Y [3] = experiment: Neuroprotective activity against rotenone/oligomycin A-induced mitochondrial oxidative stress in human SH-SY5Y cells at 0.1 uM after 24 hrs by MTT assay relative to control; assay type: functional
SH-SY5Y [4] = experiment: Neuroprotective activity against rotenone/oligomycin A-induced mitochondrial oxidative stress in human SH-SY5Y cells at 0.3 uM after 24 hrs by MTT assay relative to control; assay type: functional
SH-SY5Y [5] = experiment: Neuroprotective activity against rotenone/oligomycin A-induced mitochondrial oxidative stress in human SH-SY5Y cells at 1 uM after 24 hrs by MTT assay relative to control; assay type: functional
SH-SY5Y [6] = experiment: Neuroprotective activity against rotenone/oligomycin A-induced mitochondrial oxidative stress in human SH-SY5Y cells at 3 uM after 24 hrs by MTT assay relative to control; assay type: functional
in vitro = details: PAMPA, pH 7.4
Description: Permeability of the compound in pH 7.4 PBS by PAMPA-BBB assay

Acetylcholinesterase [7] = target: T1, Acetylcholinesterase; experiment: Inhibition of recombinant human AChE expressed in HEK293 cells using varying levels of acetylthiocholine iodide as substrate by Lineweaver-burk plot analysis
[8] = target: T2, Polyunsaturated fatty acid 5-lipoxygenase (Homo sapiens, UniProt P09917); experiment: Inhibition of human 5-lipoxygenase using arachidonic acid as substrate pretreated for 10 mins followed by substrate and ATP addition and measured after 20 mins by H2DCFDA probe based fluorescence assay
T2 sequence (P09917 whole entry): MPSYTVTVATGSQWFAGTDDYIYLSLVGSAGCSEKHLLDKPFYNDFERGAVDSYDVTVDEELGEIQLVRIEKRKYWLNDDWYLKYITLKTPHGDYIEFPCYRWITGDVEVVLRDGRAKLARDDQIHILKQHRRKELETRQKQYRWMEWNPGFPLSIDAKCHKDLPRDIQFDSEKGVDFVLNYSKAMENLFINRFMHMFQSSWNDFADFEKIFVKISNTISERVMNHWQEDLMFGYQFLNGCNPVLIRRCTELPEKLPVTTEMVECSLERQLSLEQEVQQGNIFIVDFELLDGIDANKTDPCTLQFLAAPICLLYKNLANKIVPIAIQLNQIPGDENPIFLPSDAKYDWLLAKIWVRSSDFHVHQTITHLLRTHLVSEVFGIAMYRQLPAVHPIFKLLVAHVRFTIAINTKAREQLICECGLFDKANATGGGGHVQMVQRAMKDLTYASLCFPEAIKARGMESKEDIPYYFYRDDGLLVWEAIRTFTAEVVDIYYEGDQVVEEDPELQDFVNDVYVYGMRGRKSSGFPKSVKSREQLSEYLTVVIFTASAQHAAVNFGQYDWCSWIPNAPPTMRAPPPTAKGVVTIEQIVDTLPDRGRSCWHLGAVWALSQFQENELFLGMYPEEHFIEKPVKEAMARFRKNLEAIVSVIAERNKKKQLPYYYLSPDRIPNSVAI

[9] = target: T3, Amine oxidase [flavin-containing] A (Homo sapiens, UniProt P21397); experiment: Inhibition of recombinant human MAO-A expressed in baculovirus infected BTI insect cells using p-tyramine as substrate pretreated for 15 mins followed by substrate addition by horse-radish peroxidase/amplex red-based fluorescence method
T3 sequence (P21397 whole entry): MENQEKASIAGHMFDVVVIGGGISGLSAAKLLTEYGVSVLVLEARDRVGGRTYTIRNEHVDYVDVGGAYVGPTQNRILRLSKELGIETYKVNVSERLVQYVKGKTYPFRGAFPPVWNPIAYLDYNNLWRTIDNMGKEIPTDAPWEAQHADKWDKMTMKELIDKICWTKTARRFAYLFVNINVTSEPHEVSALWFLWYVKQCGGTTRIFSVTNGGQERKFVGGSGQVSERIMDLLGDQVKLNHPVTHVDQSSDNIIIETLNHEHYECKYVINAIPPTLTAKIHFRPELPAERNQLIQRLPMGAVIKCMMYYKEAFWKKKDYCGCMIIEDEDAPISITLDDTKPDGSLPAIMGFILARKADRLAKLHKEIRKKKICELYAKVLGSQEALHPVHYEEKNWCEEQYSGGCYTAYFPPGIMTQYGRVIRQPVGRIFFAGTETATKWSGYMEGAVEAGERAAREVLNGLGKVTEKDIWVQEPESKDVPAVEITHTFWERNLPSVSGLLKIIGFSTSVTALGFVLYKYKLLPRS

[10] = target: T4, Amine oxidase [flavin-containing] B (Homo sapiens, UniProt P27338); experiment: biochemical; assay type: cell-based
T4 sequence (P27338 whole entry): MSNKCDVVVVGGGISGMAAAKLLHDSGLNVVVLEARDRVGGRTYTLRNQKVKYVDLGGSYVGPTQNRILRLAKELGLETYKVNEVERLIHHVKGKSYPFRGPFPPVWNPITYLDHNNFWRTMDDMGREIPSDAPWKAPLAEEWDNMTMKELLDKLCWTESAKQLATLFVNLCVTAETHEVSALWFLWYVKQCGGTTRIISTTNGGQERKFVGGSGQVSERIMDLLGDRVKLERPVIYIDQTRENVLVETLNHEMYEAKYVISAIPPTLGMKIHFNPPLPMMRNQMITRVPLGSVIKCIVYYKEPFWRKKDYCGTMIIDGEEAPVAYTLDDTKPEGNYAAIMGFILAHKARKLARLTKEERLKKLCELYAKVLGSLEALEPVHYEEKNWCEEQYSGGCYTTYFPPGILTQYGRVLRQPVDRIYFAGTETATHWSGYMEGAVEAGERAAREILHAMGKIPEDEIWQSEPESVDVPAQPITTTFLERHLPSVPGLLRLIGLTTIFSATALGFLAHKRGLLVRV
Description: Inhibition of recombinant human MAO-B expressed in baculovirus infected BTI insect cells using p-tyramine as substrate pretreated for 15 mins followed by substrate addition by horse-radish peroxidase/amplex red-based fluorescence method

[11] = Antioxidant activity assessed as trolox equivalent of AAPH-induced radical scavenging activity at 10 uM pretreated for 15 mins followed by APPH challenge measured every minute for 80 mins by ORAC-FL assay; assay type: functional
[12] = target: Sigma non-opioid intracellular receptor 1 (Cavia porcellus, UniProt Q60492); experiment: Displacement of (+)-[3H]pentazocine from guinea pig brain membrane sigma1 receptor by liquid scintillation counting method
Sequence of Sigma non-opioid intracellular receptor 1 (Q60492 whole entry): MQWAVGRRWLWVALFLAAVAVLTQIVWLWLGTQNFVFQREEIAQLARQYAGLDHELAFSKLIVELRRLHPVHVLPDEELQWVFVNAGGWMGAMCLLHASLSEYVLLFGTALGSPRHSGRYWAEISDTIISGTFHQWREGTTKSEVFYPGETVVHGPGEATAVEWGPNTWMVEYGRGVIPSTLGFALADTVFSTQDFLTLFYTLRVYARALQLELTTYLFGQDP

[13] = target: T5, Sigma intracellular receptor 2 (Rattus norvegicus, UniProt Q5U3Y7); experiment: Displacement of [3H]DTG from sigma2 receptor in rat liver membranes by liquid scintillation counting method; assay type: cell membranes, Membrane
T5 sequence (Q5U3Y7 whole entry): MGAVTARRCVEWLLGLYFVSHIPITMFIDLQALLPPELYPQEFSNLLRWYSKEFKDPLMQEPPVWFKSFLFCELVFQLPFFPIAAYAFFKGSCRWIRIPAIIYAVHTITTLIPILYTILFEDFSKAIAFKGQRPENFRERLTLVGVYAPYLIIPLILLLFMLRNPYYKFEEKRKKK

[14] = Selectivity ratio of Ki for displacement of [3H]DTG from sigma2 receptor in rat liver membranes to Ki for displacement of (+)-[3H]pentazocine from guinea pig brain membrane sigma1 receptor; assay type: cell membranes
Mus musculus [15] = organism: Mus musculus; experiment: Neurogenic activity in C57BL/6 mouse subgranular zone neural stem cell-derived neurospheres assessed as differentiation of neural stem cells at 10 uM treated for 7 days followed by poly-L-lysine addition and measured after 3 days by DAPI staining based confocal microscopic analysis; assay type: functional
Mus musculus [16] = organism: Mus musculus; experiment: Neurogenic activity in C57BL/6 mouse subgranular zone neural stem cell-derived neurospheres assessed as neuronal maturation at 10 uM treated for 7 days followed by poly-L-lysine addition and measured after 3 days by DAPI staining based confocal microscopic analysis; assay type: functional
Homo sapiens [17] = organism: Homo sapiens; experiment: Selectivity ratio of IC50 for recombinant human MAO-A expressed in baculovirus infected BTI insect cells to IC50 for recombinant human MAO-B expressed in baculovirus infected BTI insect cells
[18] = Antioxidant activity assessed as trolox equivalent of AAPH-induced radical scavenging activity pretreated for 15 mins followed by APPH challenge measured every minute for 80 mins by ORAC-FL assay; assay type: functional
Homo sapiens [19] = organism: Homo sapiens; experiment: Selectivity ratio of IC50 for recombinant human MAO-B expressed in baculovirus infected BTI insect cells to IC50 for recombinant human MAO-A expressed in baculovirus infected BTI insect cells
[20] = target: T6, Polyunsaturated fatty acid 5-lipoxygenase (Homo sapiens) (UniProt P09917); experiment: Inhibition of human 5-lipoxygenase at 10 uM using arachidonic acid as substrate pretreated for 10 mins followed by substrate and ATP addition and measured after 20 mins by […] probe based fluorescence assay relative to control
T6 sequence (whole entry): T2 sequence (P09917 whole entry)

SH-SY5Y [21] = experiment: Neuroprotective activity against rotenone/oligomycin A-induced mitochondrial oxidative stress in human SH-SY5Y cells at 10 nM after 24 hrs by MTT assay relative to control; assay type: functional

Row | SMILES | IC50 (Acetylcholinesterase [1]) [nM] | IC50 (Cholinesterase) [nM] | Ratio IC50 (Homo sapiens [2]) | Activity (SH-SY5Y [3]) [%] | Activity (SH-SY5Y [4]) [%] | Activity (SH-SY5Y [5]) [%] | Activity (SH-SY5Y [6]) [%] | Papp (in vitro) [×10⁻⁶ cm/s] | IC50 [8] [nM] | IC50 [9] [nM] | IC50 [10] [nM] | Ki [12] [nM] | Ki [13] [nM] | Ratio Ki [14] | Activity (umolequiv/umol) [18] | other results
1 | COc1ccc2oc(C(=O)NC3CCN(Cc4ccccc4)CC3)cc(=O)c2c1 | 970 | > 10000 | > 10 | 9.8 | 13.9 | 14.6 | 8.6 | 7.7 |  |  |  |  |  |  |  | 
2 | COc1cc2oc(C(=O)NCCC3CCN(Cc4ccccc4)CC3)cc(=O)c2cc1OC | 46 | > 10000 | > 217 | 11.5 | 18.1 | 17.1 | 22.4 | 5.9 | 74300 | 15300 | 5200 | 37.4 | 239 | 6 |  | Ki (Acetylcholinesterase [7]): 39 nM; Activity [11]: inactive; Activity (Mus musculus [15]): Active; Activity (Mus musculus [16]): Active
3 | COc1cc2oc(C(=O)NC3CCN(Cc4ccccc4)CC3)cc(=O)c2cc1OC | 660 | > 10000 | > 15 | 5.7 | 18 | 12.3 | 12.6 | 8.1 |  |  |  |  |  |  |  | 
4 | O=C(NCCC1CCN(Cc2ccccc2)CC1)c1cc(=O)c2cccc(O)c2[nH]1 | 1150 | > 10000 | > 8.7 |  |  |  |  | 4.9 | 77600 | > 100000 | 13600 | 47.4 | 290 | 6 | 1 | Ratio IC50 (Homo sapiens [17]): 7
5 | O=C(NCCC1CCN(Cc2ccccc2)CC1)c1cc(=O)c2cc(O)ccc2[nH]1 | 300 | 9880 | 33 | 18.6 | 13.7 | 17.4 | 29.7 | 5.1 |  | 51300 | 59900 |  |  |  | 1.4 | 
6 | COc1cc2oc(C(=O)OCC3CCN(Cc4ccccc4)CC3)cc(=O)c2cc1OC | 300 | > 10000 | > 33 | 19.4 | 19.6 | 6.8 | 12.4 | 3.2 |  |  |  |  |  |  |  | 
7 | O=C(NCCC1CCN(Cc2ccccc2)CC1)c1cc(=O)c2cc([N+](=O)[O-])ccc2o1 | 21 | 9300 | 443 |  |  |  |  | 8.2 | 9800 | 20500 | > 100000 | 0.98 | 287 | 293 |  | Ki (Acetylcholinesterase [7]): 12 nM; Ratio IC50 (Homo sapiens [19]): > 5; Activity [11]: inactive
8 | O=C(NCCC1CCN(Cc2ccccc2)CC1)c1cc(=O)c2cc(O)ccc2o1 | 91 | > 10000 | > 110 | 15 | 18.8 | 8.6 | 15.2 | 2.8 | > 100000 | 39300 | 51200 | 42.1 | 345 | 8 | 1.2 | inhibition [20]: 36%
9 | COc1ccc2[nH]cc(CCNC(C)=O)c2c1 [MELATONIN] |  |  |  |  |  |  |  |  |  |  |  |  |  |  |  | Activity (SH-SY5Y [21]): 42.1%
